Measurements published in ChEMBL document CHEMBL5215004, “Meroantarctines A-C, Meroterpenoids with Rearranged Skeletons from the Alga-Derived Fungus Penicillium antarcticum KMM 4685 with Potent p-Glycoprotein Inhibitory Activity” (J Nat Prod, 2022).
Active and inactive are the calls of the source. No cut-off for these calls is given here.

What was measured:
[1] = target: ATP-dependent translocase ABCB1 (Homo sapiens, UniProt P08183); assay: Inhibition of p-glycoprotein in docetaxel-resistant human PC-3 cells assessed as inhibition of calcein excretion at 0.39 to 50 uM incubated for 30 mins by fluorescence based plate reader analysis; assay type: cell-based; settings: pc-3, 0.5 h, dose 0.39-50 µM
PC-3 [2] = assay: Synergistic cytotoxicity against docetaxel-resistant human PC-3 cells assessed as reduction in cell viability at 12.5 to 100 uM incubated for 48 hrs in the presence of docetaxel by MTT assay; assay type: functional, cell-based; settings: dose 12.5-100 µM
PNT2 = assay: Cytotoxicity against human PNT2 cells assessed as reduction in cell viability at <= 100 uM incubated for 48 hrs by MTT assay; assay type: toxicity, cell-based; settings: pnt2, 48 h
RWPE-1 = assay: Cytotoxicity against human RWPE-1 cells assessed as reduction in cell viability at <= 100 uM incubated for 48 hrs by MTT assay; assay type: toxicity, cell-based; settings: rwpe-1, 48 h
PC-3 [3] = assay: Cytotoxicity against docetaxel-resistant human PC-3 cells assessed as reduction in cell viability at 0.5 to 64 uM pretreated with tariquidar for 1 hrs followed by compound addition and measured after 48 hrs by MTT assay; assay type: functional, cell-based; settings: dose 0.5-64 µM

Chain of ATP-dependent translocase ABCB1 (P08183 whole entry): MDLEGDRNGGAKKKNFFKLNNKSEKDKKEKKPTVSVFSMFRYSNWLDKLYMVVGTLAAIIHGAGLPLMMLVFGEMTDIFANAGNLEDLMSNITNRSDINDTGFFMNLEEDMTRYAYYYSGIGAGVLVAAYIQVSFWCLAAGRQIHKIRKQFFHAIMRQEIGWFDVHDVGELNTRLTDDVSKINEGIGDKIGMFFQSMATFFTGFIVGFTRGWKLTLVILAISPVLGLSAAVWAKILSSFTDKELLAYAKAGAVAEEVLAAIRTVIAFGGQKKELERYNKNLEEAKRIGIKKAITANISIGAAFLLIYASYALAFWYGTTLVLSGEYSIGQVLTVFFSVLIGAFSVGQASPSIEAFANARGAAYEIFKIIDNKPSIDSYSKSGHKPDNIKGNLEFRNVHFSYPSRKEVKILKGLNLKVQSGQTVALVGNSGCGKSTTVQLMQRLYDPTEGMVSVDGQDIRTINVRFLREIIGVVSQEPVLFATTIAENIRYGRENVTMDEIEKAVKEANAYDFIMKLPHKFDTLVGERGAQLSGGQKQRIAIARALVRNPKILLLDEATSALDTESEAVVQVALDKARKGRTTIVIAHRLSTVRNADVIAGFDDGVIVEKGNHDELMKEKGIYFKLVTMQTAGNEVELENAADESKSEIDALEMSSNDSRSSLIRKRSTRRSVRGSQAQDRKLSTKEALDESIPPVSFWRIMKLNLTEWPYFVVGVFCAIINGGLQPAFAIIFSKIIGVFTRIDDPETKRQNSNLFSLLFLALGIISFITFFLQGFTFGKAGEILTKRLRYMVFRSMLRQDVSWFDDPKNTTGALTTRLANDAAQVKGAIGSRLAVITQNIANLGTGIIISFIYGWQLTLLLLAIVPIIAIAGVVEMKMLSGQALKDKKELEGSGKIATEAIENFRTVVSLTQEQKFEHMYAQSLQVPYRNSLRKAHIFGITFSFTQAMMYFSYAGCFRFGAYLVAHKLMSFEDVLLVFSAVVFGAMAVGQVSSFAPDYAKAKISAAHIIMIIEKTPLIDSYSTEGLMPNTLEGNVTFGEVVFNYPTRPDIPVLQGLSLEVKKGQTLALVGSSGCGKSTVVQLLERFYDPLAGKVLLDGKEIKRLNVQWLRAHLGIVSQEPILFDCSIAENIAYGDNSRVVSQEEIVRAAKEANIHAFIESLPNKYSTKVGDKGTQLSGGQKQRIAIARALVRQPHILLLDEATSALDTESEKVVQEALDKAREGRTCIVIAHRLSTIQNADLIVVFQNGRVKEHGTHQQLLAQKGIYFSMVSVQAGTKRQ

| SMILES | inhibition (INH) [1] | Activity (PC-3 [2]) | Activity (PNT2) | Activity (RWPE-1) | Activity (PC-3 [3]) |
| --- | --- | --- | --- | --- | --- |
| C=C1C=C2[C@]34CC[C@H](OC(C)=O)C(C)(C)[C@H]3[C@H](C[C@]2(C)[C@]2(C(=O)OC)C(=O)[C@](C)(O)C(=O)[C@]12C)OC4=O | Active | Active | Non-Toxic | Non-Toxic |  |
| CC(=O)O[C@@]12CO[C@@H]1C[C@H](O)[C@@]1(C)C(=O)[C@H](O)C3=C(C)[C@@H](OC(=O)[C@H](O)[C@@H](NC(=O)OC(C)(C)C)c4ccccc4)C[C@@](O)([C@@H](OC(=O)c4ccccc4)[C@H]21)C3(C)C |  |  |  |  | Active |
| COC(=O)[C@@]12C(=O)C(=O)O[C@@]3(C=C1C)[C@]2(C)C[C@@H]1OC(=O)[C@]32CC[C@H](OC(C)=O)C(C)(C)[C@@H]12 | Active | Active | Non-Toxic | Non-Toxic |  |
| COC(=O)[C@H]1C(=O)O[C@]2(/C=C(\C)C(C)=O)[C@]34CC[C@H](OC(C)=O)C(C)(C)[C@H]3[C@H](C[C@]12C)OC4=O | Active | Active | Non-Toxic | Non-Toxic |  |
| COC(=O)[C@@]1(C(=O)C(C)=O)C(C)=C(C)C=C2[C@]34CC[C@H](OC(C)=O)C(C)(C)[C@H]3[C@H](C[C@@]21C)OC4=O | Active | Active | Non-Toxic | Non-Toxic |  |
